“And” between values parts separate entries of the source, which are not always exact repeats. Equal entries are not always repeated.
How the values were obtained:
[1] = system: calpain in washed human platelets; format: cell-based
talin in human platelets = format: cell-based
SH-SY5Y cells [2] = format: cell-based, human
SH-SY5Y cells [3] = format: cell-based, human; remark: listed apart in the source
human platelets [4] = format: cell-based; details: fibrinogen 0.5 to 2 mg/ml before PrP(106–126) 20 µM; 1 mM Ca2+
SH-SY5Y cells [5] = format: cell-based, human; remark: listed apart in the source
human platelets [6] = format: cell-based; details: fibrinogen 2 mg/ml; PrP 20 µM
[7] = target: fibrinogen from human plasma (human, UniProt P02671 36-866; P02675 45-491; P02679 27-453); assay: SPR; details: both partners purified

## CNc1ccc2oc(C[C@H]3O[C@@]4(CC[C@H]3C)O[C@H]([C@H](C)C(=O)c3ccc[nH]3)[C@H](C)C[C@H]4C)nc2c1C(=O)O [A23187, reference compound]
[1]
  calpain activity in platelets (in words): significant enhancement in calpain activity
Talin in human platelets
  proteolysis of talin (235 kDa to 190 kDa fragment): complete proteolysis of talin

## C[S+](C)[O-] [DMSO, dimethylsulfoxide, reference compound]
SH-SY5Y cells [2]
  Cell line MTT (viability, Vehicle = 100): 15.72 and 26.11 and 18.47

## fibrinogen: thrombogenic plasma protein fibrinogen from human plasma (Sigma #F4883)
SH-SY5Y cells [2]
  Cell line MTT (viability, Vehicle = 100): 101.27 and 76.19 and 118.37
SH-SY5Y cells [2]; 48 h
  effect of fibrinogen preincubation on PrP-induced loss of viability: completely restored
SH-SY5Y cells [3]
  abrogation of the PrP-induced FSC increase by prior fibrinogen treatment: 16.34% ± 17.85
[1]
  drop in calpain activity on fibrinogen preincubation: 30%
Talin in human platelets; fibrinogen 2 mg/ml preincubation, immunoblot, 190 kDa product
  effect of fibrinogen on prion-mediated cleavage of talin: completely prevented prion-mediated cleavage of talin
Human platelets [4]
  effect of fibrinogen pretreatment on prion-induced rise in [Ca2+]i: attenuated prion-induced rise in [Ca^2+]i in a dose-dependent manner
SH-SY5Y cells [5]
  attenuation of the rise in ΔΨm on preincubation with fibrinogen: 1.7 fold
Human platelets [6]
  effect of prior fibrinogen exposure on prion-induced extracellular vesicle shedding: completely thwarted

## KTNMKHMAGAAAAGAVVGGLG (also called prion peptide; prion) [PrP(106–126)]
[7]
  Kd: 512 ± 89 nM
